In patent US20090093482A1, “THERAPEUTIC COMPOSITIONS AND METHODS” (Gilead Sciences, Inc., priority 2007, published 2009):
Several values for one entry are separate records, joined by “and”; a condition that tells them apart may be missing. Identical values can stand only once.

Experiments:
[1] = Pharmacokinetic interaction between lopinavir/r and the Compound, steady-state PK in healthy volunteers; assay type: in vivo, human; conditions: for Exposures when coadministered with the Compound: LPV/r 400/100 mg BID + the Compound 125 mg QD; for AUCtau % GMR (90% CI) / Cmax % GMR (90% CI) / Ctau % GMR (90% CI): 14-day periods
[2] = Compartmental modeling in WinNonlin of Compound doses using the observed lopinavir interaction data; set-up: species or system human; conditions: modeled
Source text: Consideration was given to achieving equivalent Compound exposures in patients receiving and not receiving lopinavir using pharmacokinetic (bio-) equivalence comparisons (Pharsight Corporation, Mountain View, Calif., USA). Consideration was also given to minimizing the number of individuals with extreme outliers in (low or high) exposures.

[3] = LPV/r 400/100 mg BID + the Compound 125 mg QD vs LPV/r 400/100 mg BID alone, n = 13
[4] = the Compound 125 mg QD + LPV/r 400/100 mg BID vs the Compound/r 125/100 mg QD alone, n = 14

Exposures when coadministered with the Compound [1] | AUCtau % GMR (90% CI) [1, 3] | Cmax % GMR (90% CI) [1, 3] | Ctau % GMR (90% CI) [1, 3] | Reduction in the dose of the Compound with lopinavir while maintaining an equivalent exposure [2] | Dose of the Compound with lopinavir/r giving systemic exposure (AUC) similar to a 150 mg dose without lopinavir ([2]; reference is the 150 mg ritonavir-boosted dose without lopinavir) | Dose of the Compound with lopinavir/r giving systemic exposure (AUC) similar to a 300 mg dose without lopinavir ([2]; reference is the 300 mg ritonavir-boosted dose without lopinavir) | AUCtau % GMR (90% CI) [1, 4] | Cmax % GMR (90% CI) [1, 4] | Ctau % GMR (90% CI) [1, 4] | Compound | Trough concentrations when coadministered with the Compound ([1]; relative to recommended target troughs)
unaltered | 96.6% | 99.2% | 92.3% |  |  |  |  |  |  | Cc1cccc(C)c1OCC(=O)N[C@@H](Cc1ccccc1)[C@@H](O)C[C@H](Cc1ccccc1)NC(=O)[C@H](C(C)C)N1CCCNC1=O [LPV, (2S)-N-[(2S,4S,5S)-5-{[2-(2,6-dimethyl-phenoxy)acetyl]amino}-4-hydroxy-1,6-diphenyl-hexan-2-yl]-3-methyl-2-(2-oxo-1,3-diazinan-1-yl)butanamide] | maintained above recommended target troughs
unaltered | 103% | 114% | 88.3% |  |  |  |  |  |  | CC(C)c1nc(CN(C)C(=O)NC(C(=O)NC(Cc2ccccc2)CC(O)C(Cc2ccccc2)NC(=O)OCc2cncs2)C(C)C)cs1 (stereo not drawn) [RTV, 1,3-thiazol-5-ylmethyl[3-hydroxy-5-[3-methyl-2-[methyl-[(2-propan-2-yl-1,3-thiazol-4-yl)methyl]carbamoyl]amino-butanoyl]amino-1,6-diphenyl-hexan-2-yl]aminoformate] | 
 |  |  |  | 40-60% | 85 mg and 85 ± 10 mg | 150 mg | 175 (150, 204) % | 152 (129, 179) % | 238 (181, 313) % | COc1cc2c(cc1Cc1cccc(Cl)c1F)c(=O)c(C(=O)O)cn2[C@H](CO)C(C)C [the Compound, 6-(3-chloro-2-fluorobenzyl)-1-[(2S)-1-hydroxy-3-methylbutan-2-yl]-7-methoxy-4-oxo-1,4-dihydroquinoline-3-carboxylic acid] | 
